Measured values: patent publication US20240092791A1, “DIHYDROFUROPYRIDINE DERIVATIVES AS RHO-KINASE INHIBITORS” (CHIESI FARMACEUTICI S.P.A., priority 2020, published 2024)

How the values were obtained:
Rho kinase 1 (ROCK1) = Rho kinase 1 (ROCK1) (Homo sapiens, UniProt Q13464); test: In vitro inhibitory activity assay ROCK1 (ADP-Glo); format: biochemical; details: ATP 200 μM, Cheng-Prusoff from IC50; read-out: ROCK 1 (Ki, range of activity)
Protocol: (§1) The effectiveness of compounds of the present invention to inhibit Rho kinase activity can be determined in a 10 μl assay containing 40 mM Tris pH7.5, 20 mM MgCl2 0.1 mg/mL BSA, 50 μM DTT and 2.5 μM peptide substrate (Myelin Basic Protein) using an ADP-Glo kit (Promega). Compounds were dissolved in DMSO such that the final concentration of DMSO was 1% in the assay. All reactions/incubations are performed at 25° C. Compound (2 ul) and either Rho kinase 1 or 2 (4 μl) were mixed and incubated for 30 mins. Reactions were initiated by addition of ATP (4μ1) such that the final concentration of ATP in the assay was 200 μM. After a 1 hour incubation 10 μl of ADP-Glo Reagent was added and after a further 1 hour incubation 20 ul of Kinase Detection Buffer was added and the mixture incubated for a further 45 minutes. The luminescent signal was measured on a luminometer. […] Compounds were tested in dose-response format and the inhibition of kinase activity was calculated at each concentration of compound. To determine the IC50 (concentration of compound required to inhibit 50% of the enzyme activity) data were fit to a plot of % inhibition vs Log10 compound concentration using a sigmoidal fit with a variable slope and fixing the maximum to 100% and the minimum to 0%. To determine the Ki values the Cheng-Prusoff equation was utilized (Ki=IC50/(1+[S]/Km).

Rho kinase 2 (ROCK2) = Rho kinase 2 (ROCK2) (Homo sapiens, UniProt O75116); test: In vitro inhibitory activity assay ROCK2 (ADP-Glo); format: biochemical; details: ATP 200 μM, Cheng-Prusoff from IC50; read-out: ROCK2 (Ki, range of activity)
Protocol: as §1

[1] = system: cch-evoked bronchoconstriction; test: Experimental bronchospasm (carbachol-induced bronchoconstriction, Konzett & Roessler); format: in vivo, Male CD Sprague Dawley rats; details: iv, rat, 1 hour after administration, carbachol 80 μg/kg i.v., read-out: Inhibition % (±s.e. mean) of cch-evoked bronchoconstriction; for inhibition in vivo at 0.01 mg/kg: dose 10 μg/Kg intratracheal; for inhibition in vivo at 0.003 mg/kg: dose 3 μg/Kg intratracheal
Protocol: Male CD Sprague Dawley rats (220-250 g) were purchased from Charles River Laboratories Italy (Calco, Lecco). Prior to use animals were acclimated for at least 5 days 20 to the local vivarium conditions (room temperature: 20-24° C.; relative humidity: 40-70%), having free access to standard rat chow and softened tap water. All the procedures were performed in animal operating rooms according to ethical guidelines for the conduct of animal research (D. L.vo 116/92).
Rats were anaesthetized with a combination of anesthetics (Zoletil 20 mg/kg+Xylazine 5 mg/kg, ip) for the i.t. administration. A laryngoscope was moved forward into the mouth to visualize the trachea and guide the insertion of the tip of a custom-made small diameter cannula directly into the trachea and located 1-2 mm above the bifurcation.
In order to assess the residual inhibitory activity of test compounds 1 hour after their administration, rats were surgically prepared. Body temperature was kept constant at 37° C. by a heated blanket.
The trachea was cannulated and the lungs were ventilated artificially with a constant volume ventilator (rodent ventilator mod. 7025, Ugo Basile, Comerio, Varese, Italy) at a frequency of 80 strokes/min and at a tidal volume of 10 ml/kg. To avoid spontaneous breathing, the animals were injected intravenously (i.v.) with pancuronium bromide (2 mg/kg).
Bronchoconstriction was induced by the i.v. injection of carbachol (cch) 80 μg/kg. In control experiments, repeated injections of this dose produced reproducible short-lasting (1-2 min duration) bronchospasms. Bronchoconstriction, quantified as a reduction of tidal volume, was evaluated according to the method described by Konzett & Roessler (1). Systemic blood pressure and changes in airway resistance were monitored with a digital pressure transducer.
After stabilisation of artificial breathing and blood pressure, animals were injected (i.v.) with cch every 3 min, until 3 stable and reproducible basal responses were obtained. […] The effect of test compounds was 15 expressed as % inhibition of cch-evoked bronchoconstriction in time-matched, vehicle-treated, animals (controls).
Tested compounds were dissolved in dH2O and 1% Tween-80 or 0,001% HCl and further diluted to target concentrations. Tested compounds were instilled locally into the trachea in a volume of 125 μl.
All data are presented as mean±s.e.mean. The % inhibition of experimental bronchospasm was calculated comparing the drug-treated with the vehicle-treated control animals. Data analysis was performed using GraphPad Prism software.

PKA = PKA (Homo sapiens, UniProt P17612); test: In vitro inhibitory activity assay for PKA (ADP-Glo), reported as selectivity ratio vs ROCK2; format: biochemical; details: Ki value for PKA divided by Ki value of ROCK2
Protocol: The effectiveness of compounds of the present invention to inhibit PKA activity can be determined in a 10 μl assay containing 40 mM Tris pH7.5, 20 mM MgCl2 0.1 mg/ml BSA, 50 μM DTT and 260 μM peptide substrate (kemptide) using an ADP-Glo kit (Promega). Compounds were dissolved in DMSO such that the final concentration of DMSO was 1% in the assay. All reactions/incubations are performed at 25° C. Compound and PKA enzyme (6 μl) were mixed and incubated for 30 mins. Reactions were initiated by addition of ATP (4 μl ) such that the final concentration of ATP in the assay was 10 μM. After a 30 minute incubation 10 μl of ADP-Glo Reagent was added and after a further 1 hour incubation 20 μl of Kinase Detection Buffer was added and the mixture incubated for a further 45 minutes. The luminescent signal was measured on a luminometer. […] Compounds were tested in dose-response format and the inhibition of kinase activity was calculated at each concentration of compound. To determine the IC50 (concentration of compound required to inhibit 50% of the enzyme activity) data were fit to a plot of % inhibition vs Logio compound concentration using a sigmoidal fit with a variable slope and fixing the maximum to 100% and the minimum to 0%. To determine the Ki values the Cheng-Prusoff equation was utilized (Ki=IC50/(1+[S]/Km).
In vitro inhibitory activities for PKA were reported as selectivity ratio vs. ROCK-2.

Sequence of Rho kinase 1 (ROCK1) (Q13464 whole entry): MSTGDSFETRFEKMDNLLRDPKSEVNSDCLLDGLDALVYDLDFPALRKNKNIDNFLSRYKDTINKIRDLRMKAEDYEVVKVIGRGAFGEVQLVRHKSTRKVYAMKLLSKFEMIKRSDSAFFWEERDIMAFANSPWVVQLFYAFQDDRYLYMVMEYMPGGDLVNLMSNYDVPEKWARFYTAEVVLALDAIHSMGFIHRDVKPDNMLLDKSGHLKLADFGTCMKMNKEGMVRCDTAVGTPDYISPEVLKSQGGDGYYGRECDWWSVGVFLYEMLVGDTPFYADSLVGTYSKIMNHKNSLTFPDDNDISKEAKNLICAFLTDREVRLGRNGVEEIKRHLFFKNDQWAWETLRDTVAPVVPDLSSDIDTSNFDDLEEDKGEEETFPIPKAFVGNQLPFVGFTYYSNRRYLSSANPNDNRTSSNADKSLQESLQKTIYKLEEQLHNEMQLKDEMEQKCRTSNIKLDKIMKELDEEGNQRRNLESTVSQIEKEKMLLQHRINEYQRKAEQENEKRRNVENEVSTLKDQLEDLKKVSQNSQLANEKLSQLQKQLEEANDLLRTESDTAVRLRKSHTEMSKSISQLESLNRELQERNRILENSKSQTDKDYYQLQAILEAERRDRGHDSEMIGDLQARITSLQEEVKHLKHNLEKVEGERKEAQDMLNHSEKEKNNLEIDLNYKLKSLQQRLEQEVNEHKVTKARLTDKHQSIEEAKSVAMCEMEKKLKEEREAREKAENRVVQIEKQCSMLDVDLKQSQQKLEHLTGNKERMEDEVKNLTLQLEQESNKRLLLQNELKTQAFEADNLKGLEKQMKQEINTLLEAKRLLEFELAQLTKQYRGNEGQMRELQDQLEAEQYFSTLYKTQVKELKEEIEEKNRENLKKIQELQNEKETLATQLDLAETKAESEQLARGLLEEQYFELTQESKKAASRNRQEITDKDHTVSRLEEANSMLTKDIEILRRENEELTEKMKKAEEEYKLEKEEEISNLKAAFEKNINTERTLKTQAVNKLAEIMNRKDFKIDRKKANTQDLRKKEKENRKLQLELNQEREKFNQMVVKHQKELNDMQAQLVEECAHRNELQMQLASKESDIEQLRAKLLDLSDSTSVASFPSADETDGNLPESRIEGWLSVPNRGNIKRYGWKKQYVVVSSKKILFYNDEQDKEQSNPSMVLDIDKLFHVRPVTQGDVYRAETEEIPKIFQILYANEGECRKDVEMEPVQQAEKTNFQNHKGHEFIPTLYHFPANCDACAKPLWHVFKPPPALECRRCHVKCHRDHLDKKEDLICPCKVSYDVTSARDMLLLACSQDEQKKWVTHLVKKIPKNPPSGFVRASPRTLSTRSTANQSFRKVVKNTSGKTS
Sequence of Rho kinase 2 (ROCK2) (O75116 whole entry): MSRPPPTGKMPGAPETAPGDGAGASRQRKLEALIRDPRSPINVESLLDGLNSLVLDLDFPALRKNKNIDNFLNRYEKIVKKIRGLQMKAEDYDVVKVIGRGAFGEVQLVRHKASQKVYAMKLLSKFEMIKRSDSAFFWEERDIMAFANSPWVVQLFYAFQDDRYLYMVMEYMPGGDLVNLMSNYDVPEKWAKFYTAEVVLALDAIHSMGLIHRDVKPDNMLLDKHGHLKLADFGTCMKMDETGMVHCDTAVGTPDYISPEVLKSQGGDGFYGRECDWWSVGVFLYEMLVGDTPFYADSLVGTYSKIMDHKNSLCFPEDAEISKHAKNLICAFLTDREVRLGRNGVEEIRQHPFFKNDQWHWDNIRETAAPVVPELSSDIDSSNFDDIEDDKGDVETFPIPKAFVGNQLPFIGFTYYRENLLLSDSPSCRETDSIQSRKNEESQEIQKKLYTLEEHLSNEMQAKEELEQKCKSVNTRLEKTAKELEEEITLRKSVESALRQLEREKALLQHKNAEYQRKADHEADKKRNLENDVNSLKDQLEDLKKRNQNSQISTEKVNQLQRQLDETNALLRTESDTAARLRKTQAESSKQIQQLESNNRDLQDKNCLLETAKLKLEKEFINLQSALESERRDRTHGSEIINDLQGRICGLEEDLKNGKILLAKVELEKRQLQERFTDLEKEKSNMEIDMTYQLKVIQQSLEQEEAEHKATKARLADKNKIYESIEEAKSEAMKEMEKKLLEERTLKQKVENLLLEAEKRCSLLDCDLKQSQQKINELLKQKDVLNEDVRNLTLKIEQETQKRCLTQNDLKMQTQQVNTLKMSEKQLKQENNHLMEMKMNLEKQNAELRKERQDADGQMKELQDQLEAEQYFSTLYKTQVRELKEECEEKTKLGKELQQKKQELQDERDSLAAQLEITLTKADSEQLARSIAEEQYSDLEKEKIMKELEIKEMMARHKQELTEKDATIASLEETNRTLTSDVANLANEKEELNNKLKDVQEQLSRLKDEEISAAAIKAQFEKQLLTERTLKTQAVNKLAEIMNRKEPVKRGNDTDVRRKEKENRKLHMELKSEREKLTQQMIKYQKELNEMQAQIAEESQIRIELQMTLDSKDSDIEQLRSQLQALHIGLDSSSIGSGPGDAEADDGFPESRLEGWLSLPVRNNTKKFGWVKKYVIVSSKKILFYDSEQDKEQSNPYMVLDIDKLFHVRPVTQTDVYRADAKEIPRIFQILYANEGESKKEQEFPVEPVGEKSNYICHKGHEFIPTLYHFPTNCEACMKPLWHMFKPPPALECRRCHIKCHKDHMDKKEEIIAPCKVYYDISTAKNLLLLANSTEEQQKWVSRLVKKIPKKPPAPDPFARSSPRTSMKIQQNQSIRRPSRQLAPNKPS

Compound | Ki (Rho kinase 1 (ROCK1)) | Ki (Rho kinase 2 (ROCK2)) | inhibition in vivo at 0.01 mg/kg [1] | Ratio (PKA/ROCK2) (PKA) | inhibition in vivo at 0.003 mg/kg [1]
CN(C)CCC(=O)N1CCN(c2ccc(NC(=O)c3cccc(CNc4ncc(-c5ccnc(N)n5)c5c4CCO5)c3)nc2)CC1 [Example 66, 3-(((7-(2-aminopyrimidin-4-yl)-2,3-dihydrofuro[3,2-c]pyridin-4-yl)amino)methyl)-N-(5-(4-(3-(dimethylamino)propanoyl)piperazin-1-yl)pyridin-2-yl)benzamide] | ≤ 3 nM | ≤ 3 nM | 79.4 ± 7.3% | *** (ratio≥10) | 
CNCc1ccc(NC(=O)c2cccc(CNc3ncc(-c4ccnc(N)n4)c4c3CCO4)c2)nc1 [Example 84, 3-(((7-(2-Aminopyrimidin-4-yl)-2,3-dihydrofuro[3,2-c]pyridin-4-yl)amino)methyl)-N-(5-((methylamino)methyl)pyridin-2-yl)benzamide] | ≤ 3 nM | ≤ 3 nM | 89.5 ± 2% | *** (ratio≥10) | 
Nc1nccc(-c2cnc(NCc3cccc(C(=O)Nc4ccc(OC5CCNCC5)cn4)c3)c3c2OCC3)n1 [Example 71, 3-(((7-(2-aminopyrimidin-4-yl)-2,3-dihydrofuro[3,2-c]pyridin-4-yl)amino)methyl)-N-(5-(piperidin-4-yloxy)pyridin-2-yl)benzamide] | ≤ 3 nM | ≤ 3 nM |  | *** (ratio≥10) | 47.9 ± 7.7%
Nc1nccc(-c2cnc(NCc3cccc(C(=O)Nc4ccc(N5CCNCC5)cn4)c3)c3c2OCC3)n1 [Example 53, 3-(((7-(2-aminopyrimidin-4-yl)-2,3-dihydrofuro[3,2-c]pyridin-4-yl)amino)methyl)-N-(5-(piperazin-1-yl)pyridin-2-yl)benzamide] | ≤ 3 nM | ≤ 3 nM | 70.7 ± 3.4% | *** (ratio≥10) | 
CN1CCN(C)C(COc2ccc(NC(=O)c3cccc(CNc4ncc(-c5ccnc(N)n5)c5c4CCO5)c3)nc2)C1 (single isomer, unassigned) [Example 82, 3-(((7-(2-aminopyrimidin-4-yl)-2,3-dihydrofuro[3,2-c]pyridin-4-yl)amino)methyl)-N-(5-((1,4-dimethylpiperazin-2-yl)methoxy)pyridin-2-yl)benzamide] | ≤ 3 nM | ≤ 3 nM | 69.7 ± 3.4% | *** (ratio≥10) | 
CNCCOc1ccc(NC(=O)c2cccc(CNc3ncc(-c4ccnc(N)n4)c4c3CCO4)c2)nc1 [Example 73, 3-(((7-(2-aminopyrimidin-4-yl)-2,3-dihydrofuro[3,2-c]pyridin-4-yl)amino)methyl)-N-(5-(2-(methylamino)ethoxy)pyridin-2-yl)benzamide] | ≤ 3 nM | ≤ 3 nM | 76.6 ± 6% | *** (ratio≥10) | 
CNC1(COc2ccc(NC(=O)c3cccc(CNc4ncc(-c5ccnc(N)n5)c5c4CCO5)c3)nc2)CCOCC1 [Example 80, 3-(((7-(2-aminopyrimidin-4-yl)-2,3-dihydrofuro[3,2-c]pyridin-4-yl)amino)methyl)-N-(5-((4-(methylamino)tetrahydro-2H-pyran-4-yl)methoxy)pyridin-2-yl)benzamide] | ≤ 3 nM | ≤ 3 nM | 85.7 ± 0.8% | *** (ratio≥10) | 
CN(C)CCOc1ccc(NC(=O)c2cccc(CNc3ncc(-c4ccnc(N)n4)c4c3CCO4)c2)nc1 [Example 52, 3-(((7-(2-aminopyrimidin-4-yl)-2,3-dihydrofuro[3,2-c]pyridin-4-yl)amino)methyl)-N-(5-(2-(dimethylamino)ethoxy)pyridin-2-yl)benzamide] | ≤ 3 nM | ≤ 3 nM | 51.5 ± 6.2% | *** (ratio≥10) | 
C[C@@H]1CNCCN1c1ccc(NC(=O)c2cccc(CNc3ncc(-c4ccnc(N)n4)c4c3CCO4)c2)nc1 [Example 69, (R)-3-(((7-(2-aminopyrimidin-4-yl)-2,3-dihydrofuro[3,2-c]pyridin-4-yl)amino)methyl)-N-(5-(2-methylpiperazin-1-yl)pyridin-2-yl)benzamide] | ≤ 3 nM | ≤ 3 nM | 74.8 ± 7.8% | *** (ratio≥10) | 
CN1C[C@H]2C[C@@H]1CN2c1ccc(NC(=O)c2cccc(CNc3ncc(-c4ccnc(N)n4)c4c3CCO4)c2)nc1 [Example 74] | ≤ 3 nM | ≤ 3 nM |  | *** (ratio≥10) | 77.7 ± 4%
CN1CCN(C)C(COc2ccc(NC(=O)c3cccc(CNc4ncc(-c5ccnc(N)n5)c5c4CCO5)c3)nc2)C1 (single isomer, unassigned) [Example 83, 3-(((7-(2-aminopyrimidin-4-yl)-2,3-dihydrofuro[3,2-c]pyridin-4-yl)amino)methyl)-N-(5-((1,4-dimethylpiperazin-2-yl)methoxy)pyridin-2-yl)benzamide] | ≤ 3 nM | ≤ 3 nM |  | *** (ratio≥10) | 53.3 ± 4.6%
